Legend:
[1] = target: Hepatocyte growth factor receptor (Homo sapiens, UniProt P08581); assay: Selectivity interaction (Kinase panel (literature)) EUB0001199aCl MET; settings: at 1 µM
[2] = target: Platelet-derived growth factor receptor beta (Homo sapiens, UniProt P09619); assay: Selectivity interaction (KinomeScan (DiscoverX)) EUB0000655a PDGFRB; settings: at 10 µM
[3] = target: Macrophage colony-stimulating factor 1 receptor (Homo sapiens) (UniProt P07333); assay: Selectivity interaction (KinomeScan (DiscoverX)) EUB0001079a CSF1R; settings: at 1 µM
[4] = target: cAMP-dependent protein kinase catalytic subunit alpha (Homo sapiens, UniProt P17612); assay: Selectivity interaction (Millipore kinase profiler) EUB0000124b PRKACA; settings: at 10 µM
[5] = target: T1, Serine/threonine-protein kinase ULK3 (Homo sapiens) (UniProt Q6PHR2); assay: Selectivity interaction (Kinase panel (DSF assay)) EUB0001558a ULK3
T1 sequence (whole entry): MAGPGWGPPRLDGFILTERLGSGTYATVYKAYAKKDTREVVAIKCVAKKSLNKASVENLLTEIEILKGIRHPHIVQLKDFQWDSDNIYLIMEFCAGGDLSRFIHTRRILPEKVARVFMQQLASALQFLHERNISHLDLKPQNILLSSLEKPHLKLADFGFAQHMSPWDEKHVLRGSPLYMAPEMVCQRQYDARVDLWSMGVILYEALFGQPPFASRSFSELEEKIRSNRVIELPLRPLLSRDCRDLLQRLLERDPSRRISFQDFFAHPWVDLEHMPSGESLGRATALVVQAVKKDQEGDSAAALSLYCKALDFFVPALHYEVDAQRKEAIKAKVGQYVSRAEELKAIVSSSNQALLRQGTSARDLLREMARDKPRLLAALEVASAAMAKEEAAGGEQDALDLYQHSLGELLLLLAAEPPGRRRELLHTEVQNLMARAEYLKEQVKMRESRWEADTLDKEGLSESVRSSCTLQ

[6] = target: Serine/threonine-protein kinase 10 (Homo sapiens) (UniProt O94804); settings: at 10 µM
[7] = target: High affinity nerve growth factor receptor (Homo sapiens, UniProt P04629); settings: at 10 µM
[8] = target: Ribosomal protein S6 kinase alpha-3 (Homo sapiens, UniProt P51812); assay: Selectivity interaction (ActivX KiNativ screen (kinase selectivity in THP-1 cell lysates)) EUB0000639a RPS6KA3; format: subcellular; settings: lysate, at 0.01 µM
[9] = target: Mitogen-activated protein kinase 7 (Homo sapiens) (UniProt Q13164); assay: Selectivity interaction (KinomeScan (DiscoverX)) EUB0000229b MAPK7; settings: at 10 µM
[10] = target: Non-receptor tyrosine-protein kinase TYK2 (Homo sapiens, UniProt P29597); assay: Selectivity interaction (KinomeScan (DiscoverX)) EUB0001049a TYK2; settings: at 1 µM
[11] = target: T2, Protein kinase C epsilon type (Homo sapiens) (UniProt Q02156); assay: Selectivity interaction (KinomeScan (DiscoverX)) EUB0000311b PRKCE; settings: at 1 µM
T2 sequence (whole entry): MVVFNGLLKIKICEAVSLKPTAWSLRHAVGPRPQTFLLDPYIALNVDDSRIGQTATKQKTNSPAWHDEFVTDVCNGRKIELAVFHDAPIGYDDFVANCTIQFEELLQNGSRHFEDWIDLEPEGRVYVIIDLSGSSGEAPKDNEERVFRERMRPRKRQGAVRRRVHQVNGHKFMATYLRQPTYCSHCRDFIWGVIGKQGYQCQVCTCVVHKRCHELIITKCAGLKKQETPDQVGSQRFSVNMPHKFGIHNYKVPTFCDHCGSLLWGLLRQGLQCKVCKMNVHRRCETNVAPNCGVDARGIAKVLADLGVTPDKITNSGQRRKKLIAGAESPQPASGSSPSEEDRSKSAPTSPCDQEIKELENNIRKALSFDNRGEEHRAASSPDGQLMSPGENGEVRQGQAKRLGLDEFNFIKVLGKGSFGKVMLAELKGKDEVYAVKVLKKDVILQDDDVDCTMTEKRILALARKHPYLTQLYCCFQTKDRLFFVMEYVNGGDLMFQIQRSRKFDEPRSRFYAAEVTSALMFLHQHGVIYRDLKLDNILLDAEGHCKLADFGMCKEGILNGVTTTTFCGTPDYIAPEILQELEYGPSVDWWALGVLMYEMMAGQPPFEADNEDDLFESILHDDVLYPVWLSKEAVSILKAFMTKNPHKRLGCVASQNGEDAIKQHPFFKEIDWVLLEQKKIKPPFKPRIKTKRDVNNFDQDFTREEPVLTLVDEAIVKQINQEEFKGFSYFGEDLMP

[12] = target: T3, Interleukin-1 receptor-associated kinase 3 (Homo sapiens) (UniProt Q9Y616); assay: Selectivity interaction (LanthaScreen Eu Kinase Binding Assay) EUB0001632a IRAK3; settings: at 10 µM
T3 sequence (whole entry): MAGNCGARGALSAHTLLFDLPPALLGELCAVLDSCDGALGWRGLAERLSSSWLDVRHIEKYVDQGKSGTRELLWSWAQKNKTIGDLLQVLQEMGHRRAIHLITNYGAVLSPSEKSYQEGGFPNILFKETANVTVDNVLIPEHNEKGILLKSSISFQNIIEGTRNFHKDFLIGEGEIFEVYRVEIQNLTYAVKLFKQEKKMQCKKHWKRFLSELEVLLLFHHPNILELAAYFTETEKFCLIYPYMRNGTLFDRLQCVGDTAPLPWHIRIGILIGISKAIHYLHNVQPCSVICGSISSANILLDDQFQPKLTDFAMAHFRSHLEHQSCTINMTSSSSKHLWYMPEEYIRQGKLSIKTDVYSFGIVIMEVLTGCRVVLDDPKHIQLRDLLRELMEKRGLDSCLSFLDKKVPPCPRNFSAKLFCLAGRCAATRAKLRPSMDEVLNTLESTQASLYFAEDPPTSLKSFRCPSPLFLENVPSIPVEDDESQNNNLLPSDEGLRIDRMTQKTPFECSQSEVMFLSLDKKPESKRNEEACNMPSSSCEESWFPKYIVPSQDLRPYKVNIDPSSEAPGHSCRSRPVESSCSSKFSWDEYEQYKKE

[13] = target: Ephrin type-A receptor 5 (Homo sapiens) (UniProt P54756); assay: Selectivity interaction (Kinase panel (Z-LYTE Assay)) EUB0001632a EPHA5; settings: at 10 µM
[14] = target: Calcium/calmodulin-dependent protein kinase type II subunit alpha (Homo sapiens, UniProt Q9UQM7); assay: Selectivity interaction (Kinase screening (Upstate/Millipore)) EUB0000604a CAMK2A
[15] = target: Cyclin-dependent kinase 16 (Homo sapiens) (UniProt Q00536); assay: Selectivity interaction (KinomeScan (DiscoverX)) EUB0000695a CDK16; settings: at 100 nM
Chain of Cyclin-dependent kinase 16 (Homo sapiens) (Q00536 whole entry): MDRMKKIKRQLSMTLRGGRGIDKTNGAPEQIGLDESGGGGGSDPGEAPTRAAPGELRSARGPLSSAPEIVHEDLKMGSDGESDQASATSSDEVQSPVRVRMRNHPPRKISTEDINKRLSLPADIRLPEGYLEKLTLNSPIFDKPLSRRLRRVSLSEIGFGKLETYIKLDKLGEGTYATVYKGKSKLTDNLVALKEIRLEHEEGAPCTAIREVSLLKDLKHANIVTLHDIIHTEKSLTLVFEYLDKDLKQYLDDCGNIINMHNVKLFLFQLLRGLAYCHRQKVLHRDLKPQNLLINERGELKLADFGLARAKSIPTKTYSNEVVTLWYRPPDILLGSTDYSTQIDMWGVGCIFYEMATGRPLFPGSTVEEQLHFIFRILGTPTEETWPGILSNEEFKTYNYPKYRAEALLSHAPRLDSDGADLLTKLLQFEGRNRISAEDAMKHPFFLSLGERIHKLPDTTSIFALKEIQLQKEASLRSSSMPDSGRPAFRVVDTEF

Chain of Calcium/calmodulin-dependent protein kinase type II subunit alpha (Q9UQM7 whole entry): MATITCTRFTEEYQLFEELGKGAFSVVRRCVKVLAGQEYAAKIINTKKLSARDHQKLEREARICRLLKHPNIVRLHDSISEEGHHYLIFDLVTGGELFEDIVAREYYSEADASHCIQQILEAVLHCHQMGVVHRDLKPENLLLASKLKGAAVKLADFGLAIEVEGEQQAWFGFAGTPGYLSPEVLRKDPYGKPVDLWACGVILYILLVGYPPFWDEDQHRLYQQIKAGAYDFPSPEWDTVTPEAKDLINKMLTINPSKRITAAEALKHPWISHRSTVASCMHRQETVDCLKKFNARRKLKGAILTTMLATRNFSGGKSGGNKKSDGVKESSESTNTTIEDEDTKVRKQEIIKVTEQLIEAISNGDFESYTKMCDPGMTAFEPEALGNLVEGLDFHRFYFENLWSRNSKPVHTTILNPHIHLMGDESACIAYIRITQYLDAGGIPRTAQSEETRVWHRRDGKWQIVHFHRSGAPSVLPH
Chain of Macrophage colony-stimulating factor 1 receptor (Homo sapiens) (P07333 whole entry): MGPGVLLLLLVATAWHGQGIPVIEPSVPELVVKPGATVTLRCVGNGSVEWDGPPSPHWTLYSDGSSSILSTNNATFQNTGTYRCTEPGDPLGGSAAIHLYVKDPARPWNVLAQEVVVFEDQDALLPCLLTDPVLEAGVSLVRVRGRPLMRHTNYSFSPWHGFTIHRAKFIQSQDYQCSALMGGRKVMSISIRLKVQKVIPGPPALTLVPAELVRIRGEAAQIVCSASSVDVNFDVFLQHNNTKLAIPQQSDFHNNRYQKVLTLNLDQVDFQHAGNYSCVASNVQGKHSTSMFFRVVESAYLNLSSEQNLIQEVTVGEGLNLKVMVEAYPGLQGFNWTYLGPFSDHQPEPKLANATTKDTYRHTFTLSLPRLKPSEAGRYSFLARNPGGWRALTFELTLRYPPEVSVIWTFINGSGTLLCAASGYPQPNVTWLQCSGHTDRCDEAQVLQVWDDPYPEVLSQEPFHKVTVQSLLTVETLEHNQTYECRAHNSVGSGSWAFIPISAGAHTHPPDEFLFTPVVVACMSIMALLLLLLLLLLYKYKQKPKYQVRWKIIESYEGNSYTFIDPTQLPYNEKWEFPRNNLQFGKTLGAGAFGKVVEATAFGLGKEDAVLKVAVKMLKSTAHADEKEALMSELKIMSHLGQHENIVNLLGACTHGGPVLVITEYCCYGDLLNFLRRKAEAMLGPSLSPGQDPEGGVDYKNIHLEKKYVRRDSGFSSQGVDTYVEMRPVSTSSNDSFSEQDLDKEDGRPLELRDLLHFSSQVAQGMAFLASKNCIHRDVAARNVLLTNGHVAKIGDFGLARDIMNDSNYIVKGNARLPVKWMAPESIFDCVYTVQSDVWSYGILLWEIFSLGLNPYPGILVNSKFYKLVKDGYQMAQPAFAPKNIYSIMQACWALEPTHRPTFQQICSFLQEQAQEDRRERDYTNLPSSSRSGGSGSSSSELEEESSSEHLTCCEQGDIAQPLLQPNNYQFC
Chain of Ribosomal protein S6 kinase alpha-3 (P51812 whole entry): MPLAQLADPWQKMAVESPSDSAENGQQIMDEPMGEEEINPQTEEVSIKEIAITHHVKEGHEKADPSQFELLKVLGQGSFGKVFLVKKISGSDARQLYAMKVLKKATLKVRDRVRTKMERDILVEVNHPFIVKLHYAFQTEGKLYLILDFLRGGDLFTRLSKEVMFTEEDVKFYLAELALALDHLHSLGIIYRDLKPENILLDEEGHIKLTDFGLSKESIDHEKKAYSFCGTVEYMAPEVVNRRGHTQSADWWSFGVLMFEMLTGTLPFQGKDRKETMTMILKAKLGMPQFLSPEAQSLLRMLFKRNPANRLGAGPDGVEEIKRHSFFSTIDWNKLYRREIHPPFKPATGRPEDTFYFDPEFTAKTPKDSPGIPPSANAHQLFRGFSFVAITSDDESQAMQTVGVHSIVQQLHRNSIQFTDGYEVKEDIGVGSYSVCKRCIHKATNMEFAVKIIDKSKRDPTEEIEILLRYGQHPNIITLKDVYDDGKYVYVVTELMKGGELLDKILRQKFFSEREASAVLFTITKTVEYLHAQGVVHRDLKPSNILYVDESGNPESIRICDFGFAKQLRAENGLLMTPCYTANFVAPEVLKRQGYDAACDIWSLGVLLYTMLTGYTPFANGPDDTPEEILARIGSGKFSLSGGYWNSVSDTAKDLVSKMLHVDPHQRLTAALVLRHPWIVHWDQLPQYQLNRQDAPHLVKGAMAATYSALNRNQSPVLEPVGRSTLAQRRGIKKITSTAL
Chain of Mitogen-activated protein kinase 7 (Homo sapiens) (Q13164 2-816 limits assumed): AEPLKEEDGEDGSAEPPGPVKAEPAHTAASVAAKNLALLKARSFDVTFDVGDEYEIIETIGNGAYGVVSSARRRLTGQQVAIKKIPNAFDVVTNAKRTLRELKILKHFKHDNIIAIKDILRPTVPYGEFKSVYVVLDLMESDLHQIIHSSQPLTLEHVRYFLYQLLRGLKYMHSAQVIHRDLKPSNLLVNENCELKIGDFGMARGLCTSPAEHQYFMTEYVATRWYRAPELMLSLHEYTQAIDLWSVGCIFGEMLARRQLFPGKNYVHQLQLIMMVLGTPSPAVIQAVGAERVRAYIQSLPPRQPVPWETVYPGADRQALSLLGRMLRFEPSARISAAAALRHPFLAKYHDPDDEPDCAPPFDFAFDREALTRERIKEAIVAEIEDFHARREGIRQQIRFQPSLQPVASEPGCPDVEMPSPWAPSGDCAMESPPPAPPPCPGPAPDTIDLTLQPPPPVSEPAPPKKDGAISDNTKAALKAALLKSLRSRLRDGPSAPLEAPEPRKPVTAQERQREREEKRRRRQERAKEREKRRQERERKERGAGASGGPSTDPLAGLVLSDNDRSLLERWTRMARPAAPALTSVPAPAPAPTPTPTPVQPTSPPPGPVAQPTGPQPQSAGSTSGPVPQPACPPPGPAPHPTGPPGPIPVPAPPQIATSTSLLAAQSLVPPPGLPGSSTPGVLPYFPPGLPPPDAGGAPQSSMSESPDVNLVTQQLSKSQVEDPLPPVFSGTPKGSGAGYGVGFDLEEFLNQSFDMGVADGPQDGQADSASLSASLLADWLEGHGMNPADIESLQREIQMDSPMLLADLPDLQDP
Chain of Serine/threonine-protein kinase 10 (Homo sapiens) (O94804 whole entry, looked up): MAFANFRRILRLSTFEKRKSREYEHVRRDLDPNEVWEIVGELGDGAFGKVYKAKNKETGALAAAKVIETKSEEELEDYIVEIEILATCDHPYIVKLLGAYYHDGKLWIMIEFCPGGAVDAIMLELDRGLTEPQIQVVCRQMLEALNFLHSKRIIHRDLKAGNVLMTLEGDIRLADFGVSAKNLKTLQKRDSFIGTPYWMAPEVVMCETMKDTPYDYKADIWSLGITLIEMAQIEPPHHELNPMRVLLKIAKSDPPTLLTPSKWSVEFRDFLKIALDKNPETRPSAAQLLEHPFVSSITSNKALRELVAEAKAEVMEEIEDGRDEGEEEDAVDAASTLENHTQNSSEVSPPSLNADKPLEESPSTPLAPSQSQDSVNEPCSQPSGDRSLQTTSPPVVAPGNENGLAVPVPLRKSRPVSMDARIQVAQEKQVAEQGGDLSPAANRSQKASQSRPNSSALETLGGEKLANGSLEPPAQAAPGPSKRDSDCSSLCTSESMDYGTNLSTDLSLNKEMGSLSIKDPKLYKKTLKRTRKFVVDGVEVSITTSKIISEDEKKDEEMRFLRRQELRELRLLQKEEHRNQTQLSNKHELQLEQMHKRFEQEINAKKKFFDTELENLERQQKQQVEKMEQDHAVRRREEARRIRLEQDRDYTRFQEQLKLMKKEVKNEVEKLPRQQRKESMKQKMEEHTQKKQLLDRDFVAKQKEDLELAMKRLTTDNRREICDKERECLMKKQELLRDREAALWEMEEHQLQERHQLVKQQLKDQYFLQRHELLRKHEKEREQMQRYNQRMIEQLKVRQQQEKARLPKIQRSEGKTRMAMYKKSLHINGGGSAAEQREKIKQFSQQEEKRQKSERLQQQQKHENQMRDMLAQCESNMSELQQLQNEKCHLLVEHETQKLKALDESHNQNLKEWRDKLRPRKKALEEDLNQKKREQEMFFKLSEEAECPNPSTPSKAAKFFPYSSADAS

## CN1Cc2nccc(-c3cn(C)nc3-c3ccc(F)cc3)c2C1=O
[1]
  % of inhibition: 10%

## CN(C)CCOc1ccc(-c2nc(-c3ccncc3)c(-c3ccc4c(c3)CC/C4=N\O)[nH]2)cc1
[2]
  % of control: 63%

## Nc1cnc(N2CCc3cc(S(=O)(=O)Nc4c(F)cc(Cl)cc4F)cc(N4CCCC4=O)c32)nc1 [TP-020n]
[3]
  % of control: 100%

## CC(=O)Nc1cccc(-n2c(=O)n(C3CC3)c(=O)c3c(Nc4ccc(I)cc4F)n(C)c(=O)c(C)c32)c1
[4]
  % of control: 98%

## CC(C)(O)[C@H](F)CN1Cc2cc(NC(=O)c3cnn4cccnc34)c(N3CCOCC3)cc2C1=O
[5]
  dTM: 6.3 K

## COCC(=O)NC/C=C/c1ccc2ncnc(Nc3ccc(Oc4ccc(C)nc4)c(C)c3)c2c1 [CP-724714]
[6]
  % of control: 4.2%

## Cc1cc([C@@H](C)Nc2ccccc2C(=O)O)c2nc(N3CCOCC3)cc(=O)n2c1 [AZD-6482]
[7]
  % of control: 88%

## CC[C@@H]1[C@H](F)C(=O)N[C@@H]1COc1nccc2cc(C(N)=O)c(OC)cc12 [ZIMLOVISERTIB]
[8]
  % of inhibition: 10.7%

## COc1cc(N(C)c2ccnc3ccc(C(F)(F)F)cc23)cc(OC)c1OC
[9]
  % binding: 87%

## COc1cc(Nc2nc(C)cc(-c3cnn4nc(OC)ccc34)n2)cc(C(F)(F)F)c1
[10]
  % of control: 61%

## CCc1ccccc1C(=O)Nc1n[nH]c2c(C)c(F)c(C3C(C#N)=C(C)N(C)C(C)=C3C#N)cc12 [BAY-3827]
[11]
  % of control: 19%

## Cn1cc(-n2cnc3c(NCc4nc5cc(Cl)c(Cl)cc5[nH]4)nc(N4CCOCC4)nc32)cn1
[12]
  % of inhibition: -15.9%
[13]
  % of control: 6.77%

## Cc1cnc(Nc2ccc(F)cc2Cl)nc1-c1c[nH]c(C(=O)N[C@H](CO)c2cccc(Cl)c2)c1
[14]
  % of inhibition: 1%

## Cc1cc(F)c(C(=O)Nc2cccc(-c3nncn3C(C)C)n2)cc1-n1cnc(C2CC2)c1
[15]
  % of control: 75%
